Results on 2 compounds are retold here after ChEMBL document CHEMBL2346635, “6-Oxo and 6-thio purine analogs as antimycobacterial agents” (Bioorg Med Chem, 2013).

Common to all, as to format: functional
Assay [1] deals with Mycobacterium tuberculosis. The experiment in a line: Antimycobacterial activity against thiacetazone-resistant Mycobacterium tuberculosis assessed as growth inhibition by Alamar blue assay.
The test system of assay [2] is Mycobacterium tuberculosis. The experiment in a line: Antimycobacterial activity against rifampin-resistant Mycobacterium tuberculosis assessed as growth inhibition by Alamar blue assay.
Assay [3] relates to Mycobacterium tuberculosis. As to the kind of experiment: Antimycobacterial activity against ethambutol-resistant Mycobacterium tuberculosis assessed as growth inhibition by Alamar blue assay.
The subject of assay [4] is Mycobacterium tuberculosis. As to the kind of experiment: Antimycobacterial activity against isoniazid-resistant Mycobacterium tuberculosis assessed as growth inhibition by Alamar blue assay.
The subject of assay [5] is Mycobacterium tuberculosis. As to the kind of experiment: Antimycobacterial activity against ciprofloxacin-resistant Mycobacterium tuberculosis assessed as growth inhibition by Alamar blue assay.
Assay [6] deals with Mycobacterium tuberculosis. The experiment in a line: Antimycobacterial activity against kanamycin-resistant Mycobacterium tuberculosis assessed as growth inhibition by Alamar blue assay.

≈ marks a conversion by molar mass, not a printed value.

Turning to `CCCCCCCCCCCCSc1ncnc2c1ncn2CC(=O)OCC`, the MIC90 is 3.13 µg/mL (≈ 7.7 µM) in assay [1]; 3.13 µg/mL (≈ 7.7 µM) in assay [2]; 3.13 µg/mL (≈ 7.7 µM) in assay [3]; 1.56 µg/mL (≈ 3.84 µM) in assay [4]; 1.56 µg/mL (≈ 3.84 µM) in assay [5].
Turning to `CCCCCCCCCCSc1ncnc2c1ncn2CC(=O)OCC`, the MIC90 in assay [2] was 6.25 µg/mL (≈ 16.5 µM); in assay [6] it was 6.25 µg/mL (≈ 16.5 µM); in assay [3], 6.25 µg/mL (≈ 16.5 µM); in assay [4] it was 12.5 µg/mL (≈ 33 µM); in assay [5] it was 12.5 µg/mL (≈ 33 µM).
